Columns and labels:
[1] = system: carotid body; test: Carotid body sensory activity ex vivo (carotid sinus nerve single unit discharge), rats
Protocol: (§1) Sensory activity from carotid bodies ex vivo was recorded as previously described (Peng, Y. J., et al., PNAS, 2003, 100, 10073-78; Peng Y. J., et. al., J. Physiol., 2006, 577, 705-716). Briefly, carotid bodies along with the sinus nerves were harvested from anaesthetized mice or rats, placed in a recording chamber (volume, 250 μl) and superfused with warm physiological saline (35° C.) at a rate of 2.5 ml/min having the following composition (mM): NaCl (140), KCl (5.4), CaCl2 (2.5), MgCl2 (0.5), HEPES (5.5), D-glucose (11), sucrose (5), and the solution was bubbled with 100% O2 and pH was adjusted to 7.35. Carotid bodies were challenged with graded hypoxia by switching the perfusate equilibrated with gas mixtures containing varying levels of O2. For assessing the carotid body response to CO2, bicarbonate-buffered medium equilibrated with either […] (baseline) or 90% 02+10% CO2 balance N2. Clearly identifiable action potentials (2-3 active units) were recorded from one of the nerve bundles with a suction electrode and stored in a computer via a data acquisition system (PowerLab/8P, AD Instruments Pty Ltd, Australia). ‘Single’ units were selected based on the height and duration of the individual action potentials using a spike discrimination program (Spike Histogram Program, Power Laboratory, AD Instruments). In each carotid body, at least two chemoreceptor units were analyzed. The PO2, and PCO2 of the superfusion medium were determined by a blood gas analyzer (ABL 5, Radiometer, Copenhagen, Denmark).
(§2) Rats and mice were treated with DL-propargylglycine (Sigma; 200 mg/kg) or Cr(III) Mesoporphyrin IX chloride (CrM459, Frontier Scientific, Logan, Utah; 1 mg/kg) intraperitoneally 2-3 h before acute experiments on anesthetized animals. NaHS (Sigma chemicals, MO) was given acutely to the ex vivo carotid body preparation. In the in vitro assays for H2S measurements, known concentrations of HO-2 inhibitor and CO donor (tricarbonyldichlororuthenium, [Ru(CO)3Cl2]2, Sigma, USA) were added to cell lysates. All solutions with drugs were prepared fresh during the experiments.
(§3) In unsedated mice RR (breaths/min), VT (μl), minute ventilation [VE (ml/min)=RR×VT], O2 consumption (VO2, ml/min), and CO2 production (VCO2 ml/min) were analyzed. Respiratory variables (RR and VT) were averaged for at least 20 consecutive breaths over 5 min of inspired O2 and CO2 challenge. VT, VE, VO2 and VCO2 were normalized to body weight. Carotid body sensory activity (discharge from ‘single’ units) was averaged during 3 min of baseline and during the 3 min of gas challenge and expressed as impulses per second unless otherwise stated. The number of secretory events and the amount of catecholamine secreted per secretory event were analyzed in each experiment and the data were expressed as total catecholamines secreted. Average data are presented as mean±S.E.M. Statistical significance was assessed by either ANOVA or two-way ANOVA with repeated measures followed by Tukey's test. p values <0.05 were considered significant.

[2] = system: H2S generation in carotid bodies; test: Measurement of H2S levels in carotid body homogenates, rats; type: biochemical
Protocol: (§4) H2S levels in the carotid body were assayed as follows. Briefly, carotid bodies were pooled (4 carotid bodies per experiment in rats; 6 carotid bodies per experiment in mice) and tissue homogenates were prepared in 100 mM potassium phosphate buffer, pH 7.4. The enzyme reaction was carried out in sealed tubes flushed with either N2 or different levels of O2—N2 gas mixtures. The PO2 of the reaction medium was determined by blood gas analyzer (ABL5). The assay mixture in a total volume of 500 μl contains (in final concentration): L-cysteine, (800 μM); pyridoxal 5′-phosphate, (80 μM); potassium phosphate buffer, pH 7.4, (100 mM); and tissue homogenate (2 μg protein). The reaction mixture was incubated at 37° C. for 1 h and at the end of the reaction, alkaline zinc acetate (1% w/v; 250 up and trichloroacetic acid (10% v/v) was added sequentially to trap H2S generated and to stop the reaction, respectively. The zinc sulfide formed was reacted sequentially with acidic N,N-dimethyl-p-phenylenediamine sulfate (20 μM) and ferric chloride (30 μM) and the absorbance was measured at 670 nm using a micro-plate reader. A standard curve relating the concentration of Na2S and absorbance was used to calculate H2S concentration and expressed as nanomoles of H2S formed per hour per milligram protein.
as §2

[3] = system: H2S generation in carotid bodies; test: Measurement of H2S levels in carotid body homogenates, mice; type: biochemical; conditions: 1 μM, normoxia, FIG. 5A
Protocol: as §4, with “protein. […]” for “protein.”

[4] = system: carotid body; test: Carotid body sensory activity ex vivo (carotid sinus nerve single unit discharge), mice
Protocol: as §1, §2, §3

[5] = system: neonatal adrenal medullary chromaffin cells (AMC); test: Catecholamine secretion from neonatal adrenal medullary chromaffin cells by amperometry; type: cell-based, rats; conditions: 40 mM K+, AMC from PAG treated rat pups; FIG. 6B
Protocol: The protocols for preparation of chromaffin cells and measurements of catecholamine secretion by amperometry are as follows. Briefly, adrenal glands were harvested from anesthetized mice and rats aged P10. Chromaffin cells were enzymatically dissociated, plated on collagen (type VII; Sigma) coated coverslips, and maintained at 37° C. in a 5% CO2 incubator for 12-24 h. The growth medium consisted of F-12 K medium (Invitrogen) supplemented with 10% horse serum, 5% fetal bovine serum, and 1% Penicillin/streptomycin/glutamine cocktail (Invitrogen). Catecholamine secretion from chromaffin cells was monitored by amperometry using carbon fiber electrodes. […] Normoxic solutions were equilibrated with room air (PO2˜146 mmHg), and hypoxic solutions were equilibrated with appropriate gas mixtures that yielded medium PO2, of ˜30-40 mmHg as measured by blood gas analyzer. […]
In unsedated mice RR (breaths/min), VT (μl), minute ventilation [VE (ml/min)=RR×VT], O2 consumption (VO2, ml/min), and CO2 production (VCO2 ml/min) were analyzed. […] Carotid body sensory activity (discharge from ‘single’ units) was averaged during 3 min of baseline and during the 3 min of gas challenge and expressed as impulses per second unless otherwise stated. […]

[6] = Respiration (rate and depth) in spontaneously hypertensive and Sprague-Dawley rats, whole body polysomnography; type: in vivo; conditions: FIG. 14
Protocol: FIG. 14. […] Spontaneously hypertensive rats (SHR) were treated with the CSE inhibitor propargylglycine. Their respiration was measured using whole body polysomnography. The control animals were Sprague-Dawley rats.

[7] = system: H2S generation in adrenal glands; test: H2S generation in adrenal glands of rat pups; type: biochemical, rats; conditions: PAG treated rat pups vs vehicle; data not shown
[8] = systemic administration (1 mg/kg i.p.), CSE+/+ mice, FIG. 5B-D

Compound: COc1ccc(Cl)cc1C(=O)NCCc1ccc(S(=O)(=O)NC(=O)NC2CCCCC2)cc1 [glibenclamide]
- prevention of carotid body response to NaHS ([1]; 100 μM glibenclamide, 100 μM NaHS, rats, FIG. 12): failed to prevent
- prevention of carotid body response to hypoxia ([1]; 100 μM glibenclamide, hypoxia PO2=42 mmHg, rats, FIG. 12): failed to prevent

Compound: CCC1=C(C)c2cc3[n-]c(cc4nc(cc5[n-]c(cc1n2)c(C)c5CCC(=O)O)C(CCC(=O)O)=C4C)c(C)c3CC.[Cl][Cr+2] [Cr (III) MP, Cr (III) mesoporphyrin IX chloride]
- H2S generation in carotid bodies under normoxia ([2]; rat carotid bodies, 1 and 100 μM, FIG. 13A): enhanced
- increase of H2S generation in carotid bodies ([3]; CSE+/+ mice): 6 fold
- increase of H2S generation in carotid bodies ([3]; CSE−/− (mutant) mice): abolished
- baseline carotid body activity [4, 8]: significantly increased
- carotid body hypoxic response [4, 8]: potentiated

Compound: C#CCC(N)C(=O)O (racemic) [PAG, DL-propargylglycine]
- basal H2S levels in carotid body ([2]; PAG treated rats (vehicle=266±61)): 147±50 nmol/h/mg protein
- reduction of basal H2S levels in carotid body ([2]; PAG treated rats vs vehicle, p<0.05): 55%
- hypoxia-evoked H2S generation in carotid bodies ([2]; PAG treated rats, graded hypoxia, FIG. 3A): nearly absent
- K+-evoked catecholamine secretion [5]: unaffected
- carotid body response to CO2 ([1]; PAG treated rats (same rats tested for hypoxia), FIG. 3C): significantly augmented
- carotid body sensory response to hypoxia ([1]; PAG treated rats vs vehicle, FIG. 3B): significantly attenuated
- respiration frequency ([6]; control Sprague-Dawley rats treated with PAG): reducing respiration frequency very slightly
- breathing pattern ([6]; spontaneously hypertensive rats (SHR) treated with PAG): normalized
- hypoxia-induced increase of H2S generation in adrenal glands [7]: greatly reduced or absent
- carotid body sensory response to hypoxia ([4]; CSE+/+ mice treated systemically with PAG (200 mg/kg i.p. 2-3 h before), FIG. 9): loss of the hypoxic response
- carotid body hypoxic response, acute application ([4]; acute application of PAG to the carotid body): ineffective in preventing the hypoxic response

Compound: [Na+].[SH-] [NaHS]
- carotid body response in Ca2+-free and EGTA containing medium ([1]; 100 μM NaHS, rats, FIG. 4B): abolished
- onset of carotid body response after application ([1]; NaHS, activity returned to baseline after termination, FIG. 4A): within seconds
- carotid body sensory activity ([1]; exogenous NaHS, rats, FIG. 4A): augmented
- carotid body sensory activity ([4]; exogenous NaHS 100 μM, CSE+/+ and CSE−/− mice, FIG. 11): augmented

Compound: O=[C]=[Ru]([Cl])([Cl])(=[C]=O)=[C]=O [[Ru(CO)3Cl2]2, tricarbonyldichlororuthenium]
- H2S generation in carotid bodies under hypoxia ([2]; rat carotid bodies, hypoxia PO2=38 mmHg, 1 and 10 μM, FIG. 13B): inhibited H2S generation by hypoxia nearly to the levels seen under normoxia

Compound: N[C@@H](CS)C(=O)O [L-cysteine]
- effect on carotid body hypoxic response ([1]; 100 μM L-cysteine, isolated rat carotid body, FIG. 10): no significant effect
